The source of these data is patent US9284297B2, “Halofuginone analogs for inhibition of tRNA synthetases and uses thereof” (President and Fellows of Harvard College, priority 2008, dated 2016).

Read-outs that look alike come from different tables or passages of the source.

Experiment [1] has as its system CD4+ CD25− T cells (Th1, Th2, iTreg differentiation, proliferation, CD25), CD8+ T cells, B cells. The experiment in a line: T and B cell activation, proliferation and Th1, Th2, iTreg differentiation. Format: cell-based, murine. The method, then: Cytokines secreted into media supernatant were measured using the mouse Th1/Th2 cytometric bead array (CBA—BD Pharmingen) in accordance with manufacturers instructions.

The test system of experiment [2] is human CD4+ T cells (CD4+ CD45RO+). The experiment in a line: IL-17 and IFNγ expression by human memory CD4+ T cells co-cultured with monocytes. Conditions: 100 nM HF; expanded for 6 days. It is filed as cell-based. The method, then:
FIG. 5F is a set of FACS analyses of purified primary human memory T cells (CD4^+ CD45RO^+) activated in co-culture with CD14^+ monocytes and treated with DMSO, 100 nM HF or 100 nM MAZ1310. T cells were expanded for 6 days and intracellular cytokine expression was determined following restimulation with PMA plus ionomycin.
In light of reports that IL-17 expression may be differentially regulated in murine versus human T cells (Manel et al., Nat. Immunol. 9:641, 2008; Wilson et al., Nat. Immunol. 8:950, 2007; Acosta-Rodriguez et al., Nat. Immunol. 8:942, 2007), HF modulation of IL-17 expression by human CD4^+ T cells was investigated. […] Therefore, HF selectively limits IL-17 expression in both human and mouse T cells.
Primary murine T and B cells were purified by cell sorting. CD4^+ CD25^− T cells were positively selected using CD4 dynabeads and detachabeads (Dynal, Oslo, Norway) per manufacturers instructions followed by nTreg depletion using a CD25 microbead kit (Miltenyi biotech, Auburn, Calif.). Naïve (CD4^+ CD62Lhi CD44lo Foxp3gfp- or CD4^+ CD62Lhi CD44lo CD25^−) T cells were purified from Foxp3gfp or Foxp3ko mice, respectively, by FACS sorting. […] Resting human CD4^+ T cells were isolated from PBMC of healthy human donors using Dynal CD4 Positive Isolation Kit (Invitrogen, Carlsbad, Calif.) as previously described (Sundrud et al., Blood 106:3440, 2005). […]

The subject of experiment [3] is SV-MES mesangial cells (GCN2 Thr898, eIF2alpha Ser51 phosphorylation). The experiment in a line: AAR activation in cultured fibroblastic cells, western blot. It is filed as cell-based. Conditions: 20 nM; 2 hours. The text has this: Duplicate cell samples are shown. […] Activated GCN2 phosphorylates eif2alpha at Ser 51, therefore this is an expected downstream outcome of AAR activation.
For orientation: Immunoblotting shows a protein as a band on a membrane.

For the next experiment, the system named is adjuvant-driven EAE. The experiment in a line: Adjuvant-driven experimental autoimmune encephalomyelitis (EAE), MOG33-55 immunization. It is filed as in vivo, mice. The text has this: The ability of systemic HF treatment to block IL-17 expression and associated autoimmune inflammation in vivo was examined using two distinct models of experimental autoimmune encephalomyelitis (EAE). […] The second model, a passive model of EAE induction, is initiated by the transfer of myelin proteolipid protein (PLP)-reactive T cells into lymphopenic hosts.
Adjuvant-driven EAE was induced in 8 week-old wild-type B6 mice purchased from Charles River laboratories (Kingston, N.Y.) by subcutaneous injection of […] peptide emulsified in Incomplete Freund's Adjuvant (IFA) plus 5 mg/ml heat-killed M. tuburculosis (BD Biosciences) in both dorsal flanks as described in Veldhoen et al. (Nat. Immunol. 7(11):1151-1156, 2006).
Mice were injected daily with HF (2 μg/mouse) or vehicle control (DMSO) i.p. Clinical signs of EAE were assessed according to the following score: 0, no signs of disease; 1, flaccid tail; 2, weak gait/hind limb paresis; 3, hind limb paralysis; 4, tetraplegia; 5, moribund. Cytokine production during EAE was determined either in peripheral T cells isolated from spleen or lymph nodes of mice prior to disease onset (day 6-10) or in mononuclear cells isolated from the brain and spinal cords of mice with severe disease (clinical score ≧2) between days 15-20. Briefly, splenocytes were stained for intracellular cytokines following erythrocyte lysis with ammonium chloride buffer. T cells were isolated from brain and spinal cords of mice with active EAE following perfusion with cold PBS. Minced CNS tissue was digested with liberase C1 (0.33 mg/ml, Roche Diagnostics) or collagenase D (10 mg/ml, Roche Diagnostics) at 37° C. for 30-45 minutes. Cell suspensions were passed through 70 μm cell strainers (VWR) and fractionated by 70%/30% Percoll gradient centrifugation. Mononuclear cells were collected from the interphase, washed, and used for intracellular cytokine analysis.

Experiment [4] concerns eIF2α phosphorylation and AAR-associated transcripts (Asns, Gpt2, eIF4Ebp1) in splenocytes. The experiment in a line: AAR activation in splenocytes of HF-injected mice. It is filed as in vivo. To be noted: i.p. 2.5 mg HF; spleens harvested 6 hours post injection. The method, then: FIG. 18F, left panel, depicts western blot analysis of protein from cells of wild-type mice injected i.p. with vehicle (DMSO) or 2.5 mg HF. Spleens were harvested 6 hours post injection, red blood cells were removed by NH4Cl lysis buffer and immunoblotting for phosphorylated or total eIF2a was performed on whole cell extracts. FIG. 20F, right panel is a graph depicting levels of AAR-associated gene expression (Asns, Gpt2, eIF4Ebp1) analyzed by quantitative real-time PCR using cDNA from splenocytes of mice treated with DMSO or HF as above. Expression of AAR-associated transcripts were normalized to Hprt levels and data are presented as mean relative expression from duplicate samples±SD. All data represent 2-3 similar experiments.
HF-mediated protection from adjuvant-driven EAE was accompanied by a reduction in T cell-derived IL-17-expression, both in peripheral lymph nodes prior to disease onset and in CNS tissue during active disease (FIG. 18E), as well as an overall reduction in CD4^+ T cell infiltrates into the CNS (FIG. 19).

For experiment [5], the system named is Th17 differentiation of CD4+ CD25− T cells. Conditions: read-out: 50% inhibition of IL-17 expressing cell (Th17) development; cited from earlier work.
The subject of experiment [6] is TGFβ-induced Smad phosphorylation and lymphocyte responses to TGFβ. To be noted: cited from earlier work.
The next experiment concerns dermal ECM deposition. Conditions: introduced intraperitoneally, added to food, or applied locally; cited from earlier work.
For experiment [7], the system named is Th17 differentiation of CD4+ CD25− T cells. The experiment in a line: Th17 differentiation of CD4+ CD25− T cells (IL-17+ IFNγ− cells, intracellular cytokine staining).
Procedure: Purified CD4^+ CD25^− T cells were activated in vitro as previously described (Djuretic et al., Nat. Immunol. 8:145, 2007) using 0.3 μg/ml hamster anti-mouse CD3 (clone 145-2C11) (ATCC, Manassas, Va.) and 0.5 μg/ml hamster anti-mouse CD28 (BD Pharmingen, San Jose, Calif.). Activated cell cultures were differentiated using the following combinations of cytokines and antibodies: iTreg—recombinant human TGFβ1 (3 ng/ml—R&D systems, Minneapolis, Minn.), Th17-TGFβ1 (3 ng/ml) plus recombinant mouse IL-6 (30 ng/ml—R&D systems). […] Human IL-2 supernatant (National Cancer Institute) was used in culture at 0.01 U/ml and was added at 48 hours-post activation when T cells were split into tissue culture wells lacking CD3 and CD28 antibodies, with the exception of Th17 cultures that were maintained in the absence of exogenous IL-2. […] All reagents (see below) were added at the time of T cell activation and again at 48 hours post activation unless indicated otherwise.
For detection of intracellular cytokines in murine cells, cultured T or B cells were stimulated with 10 nM PMA (Sigma) and 1 mM ionomycin (Sigma) for 4-5 hours in the presence of 10 mM brefeldin A (Sigma). Stimulated cells were harvested, washed with PBS and fixed with PBS plus 4% paraformaldehyde at room temperature for 20 minutes. Cells were then washed with PBS, permeabilized with PBS supplemented with 1% BSA and 0.5% saponin (Sigma) at room temperature for 10 minutes before cytokine-specific antibodies were added and incubated with cells for an additional 20 minutes at room temperature. […] All stained cells were stored at 4° C. in PBS plus 1% paraformaldehyde prior to FACS analyses.
All cell surface staining was performed in FACS buffer (PBS/2% FBS/0.1% NaN3) and antibodies were incubated with cells on ice for 20-30 minutes. Cells were washed with FACS buffer and fixed with FACS buffer plus 1% paraformaldehyde prior to data acquisition.

For the compound `O=C(CC1NCCCC1O)Cn1cnc2cc(Br)c(Cl)cc2c1=O` (stereo not shown) [Compound 1, 7-bromo-6-chloro-3-[3-(3-hydroxy-2-piperidinyl)-2-oxopropyl]-4(3H)-quinazolinone], the “concentration inducing general inhibition of T and B cell activation, proliferation, and effector function” value in [1] is more than 20 nM. Further, the “effect on T cell proliferation, CD25 upregulation, IL-2, TNF, IFNγ production” value in experiment [1] (1-10 nM) is on record as “did not affect T cell proliferation, CD25 upregulation, or production of IL-2, TNF, or IFNγ”. The “effect on Th1, Th2, iTreg differentiation” value in [1] (polarizing cytokine conditions, IFNγ, IL-4, Foxp3 expression) is listed as “failed to modulate Th1, Th2 or iTreg differentiation”. Besides, in [2], the “IFNγ expression by human T cells” value is “essentially unaffected”; the “IL-17 expression by human T cells” value is “greatly reduced both the percentage of human T cells expressing IL-17 and the amount of IL-17 produced”. In addition, the “AAR activation (GCN2 Thr898 and eIF2alpha Ser51 phosphorylation)” value in experiment [3] is on record as “activates the AAR”. Also, in the experiment on adjuvant-driven EAE (2 μg HF daily i.p.), the “IL-17 and IFNγ expression in T cells of lymph nodes and CNS” value is reported as “impaired IL-17 production but did not affect IFNγ expression”. Further, the “EAE disease severity and frequency of onset” value with adjuvant-driven EAE (2 μg HF daily, ˜0.1 mg/kg, i.p.) is “significantly reduced both the severity of adjuvant-driven EAE disease and frequency of disease onset”. In the experiment on adjuvant-driven EAE (treatment from day 10), the “EAE, HF not introduced until day 10 following immunization” value is “controls autoimmune inflammation even after inflammatory pathogenesis is evident”. In the experiment with adjuvant-driven EAE (treatment until day 10), the “EAE, HF injection terminated at day 10 following immunization” value is listed as “exerts a protective effect that extends well beyond the time of treatment”. The “eIF2α phosphorylation and AAR-associated transcripts in splenocytes ex vivo” value in experiment [4] was “increased eIF2α phosphorylation and expression of AAR-associated transcripts”. In addition, in experiment [5], the IC50 was approximately 3 nM. The “concentrations attenuating TGFβ signaling” value in [6] is given as more than 50 nM. The “dermal ECM deposition” value in the experiment with dermal ECM deposition was “reduces excess dermal ECM deposition”. Besides, the “rescue of inhibited Th17 differentiation by added amino acids” value in [7] (10 nM halofuginone, 1 mM of the indicated amino acids) was “Proline, and no other added amino acid, rescues the inhibition of Th17 differentiation”. Also, in experiment [7] (Mus musculus, T-cell, 96 h, read-out: IC50, Th17 differentiation), the IC50 turned out to be 3.6 nM.
